{"source": "patent US20120328692A1", "about": "“POTENT D-PEPTIDE ANTAGONISTS OF MDM2 AND MDMX FOR ANTICANCER THERAPY” (UNIVERSITY OF MARYLAND, BALTIMORE, priority 2011, published 2012)", "key": {"[1]": {"tested_on": "human glioma cell line U87 (wild type p53)", "assay": "MTS cell viability assay, U87 cells", "assay_type": "cell-based", "settings": "three-day treatment, read-out: IC50 of growth inhibition", "from_the_text": "The inhibition curves are averages of 3 independent measurements."}, "[2]": {"target": "T1, ^synMDMX (^24-108MDMX, p53-binding domain of MDMX) (Homo sapiens, UniProt O15151)", "T1 construct": "MDMX (^24-108MDMX or syn MDMX); made in house; host or cells: chemical synthesis (inferred from the prefix 'syn'; no expression host named)", "T1 sequence (O15151 24-108)": "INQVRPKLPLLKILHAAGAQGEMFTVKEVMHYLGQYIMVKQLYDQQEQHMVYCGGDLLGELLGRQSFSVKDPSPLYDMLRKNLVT", "assay": "competition SPR binding to synMDMX"}, "normal cells": {"tested_on": "normal cells", "settings": "cited from earlier work"}}, "data": [{"molecule": "COc1ccc(C2=N[C@@H](c3ccc(Cl)cc3)[C@@H](c3ccc(Cl)cc3)N2C(=O)N2CCNC(=O)C2)c(OC(C)C)c1", "note": "[Nutlin-3]", "values": [{"measurement": "IC50", "setting": "[1]", "value": 3.8, "unit": "µM"}]}, {"molecule": "CC(C)C[C@@H](NC(=O)[C@H]1CCCN1C(=O)[C@@H](Cc1c[nH]c2ccccc12)NC(=O)[C@@H](Cc1c[nH]c2ccccc12)NC(=O)[C@H](N)CC(=O)O)C(=O)N[C@H](C)C(=O)N[C@H](Cc1ccccc1)C(=O)N[C@H](CCC(=O)O)C(=O)N[C@H](C)C(=O)N[C@H](CC(C)C)C(=O)N[C@H](CC(C)C)C(=O)N[C@H](CCCNC(=N)N)C(=O)O", "note": "[^DPMI-γ]", "values": [{"measurement": "Kd", "setting": "[2]", "value": 4.9, "unit": "µM"}]}, {"molecule": "MI-219", "values": [{"measurement": "activation of the p53 pathway (accumulation of p53, increased MDM2 and p21)", "setting": "normal cells", "value": "transient activation of the p53 pathway"}, {"measurement": "expression of PUMA and apoptosis", "setting": "normal cells", "value": "fails to induce the expression of PUMA and apoptosis"}]}]}
